Data taken from publication PMC11435058, “Synthesis of New Thiazole-Privileged Chalcones as Tubulin Polymerization Inhibitors with Potential Anticancer Activities” (Pharmaceuticals, 2024).

Key:
SR = experiment: NCI-60 anticancer screen (SRB; single dose and five doses); conditions: Homo sapiens
A498 = experiment: as above; conditions: Homo sapiens
SK-MEL-5 = experiment: as above; conditions: Homo sapiens
MOLT-4 = experiment: as above; conditions: Homo sapiens
RXF 393 = experiment: as above; conditions: Homo sapiens
NCI-H522 = experiment: as above; conditions: Homo sapiens
K-562 = experiment: as above; conditions: Homo sapiens
MALME-3M = experiment: as above; conditions: Homo sapiens
SF-539 = experiment: as above; conditions: Homo sapiens
SF-268 = experiment: as above; conditions: Homo sapiens
SNB-19 = experiment: cells; conditions: Homo sapiens
[1] = test system: 60 human tumor cell lines panel; experiment: NCI-60 anticancer screen, whole panel (means and ranges over the cell lines); format: cell-based
HS 578T = experiment: NCI-60 anticancer screen (SRB; single dose and five doses); conditions: Homo sapiens
NCI-H23 = experiment: as above; conditions: Homo sapiens
RPMI-8226 = experiment: as above; conditions: Homo sapiens
SN12C = experiment: as above; conditions: Homo sapiens
DU-145 = experiment: as above; conditions: Homo sapiens
MDA-MB-231/ATCC = experiment: as above; conditions: Homo sapiens
CCRF-CEM = experiment: NCI-60 anticancer screen (SRB; single dose 10 μM and five doses); conditions: Homo sapiens
BT-549 = experiment: NCI-60 anticancer screen (SRB; single dose and five doses); conditions: Homo sapiens
COLO 205 = experiment: as above; conditions: Homo sapiens
MCF7 = experiment: as above; conditions: Homo sapiens
EKVX = experiment: as above; conditions: Homo sapiens
NCI/ADR-RES = experiment: as above; conditions: Homo sapiens
PC-3 = experiment: as above; conditions: Homo sapiens
ACHN = experiment: as above; conditions: Homo sapiens
NCI-H322M = experiment: as above; conditions: Homo sapiens
NCI-H226 = experiment: as above; conditions: Homo sapiens
M14 = experiment: as above; conditions: Homo sapiens
[2] = 48 h, read-out: Growth Percentage
[3] = five doses, mean graph midpoint over all cell lines

In the case of `Cc1[nH]c(=S)sc1C(=O)/C=C/c1cccc(Cl)c1` [2e, (E)-3-(3-Chlorophenyl)-1-(4-Methyl-2-Thioxo-2,3-Dihydrothiazol-5-yl)Prop-2-En-1-One], the GI50 (SR) is reported as 2.63 µM, the IC50 (SR) is reported as 3.89 µM and the activity at 10 µM (SR; [2]) is reported as 3.42%. The CC50 (SR; read-out: LC50) was > 100 µM, the IC (TGI) (SR; read-out: TGI) was > 100 µM and the GI50 (A498; A498) was 19.5 µM. For the same compound, the IC50 (A498; A498) was 47.9 µM, the activity at 10 µM (A498; A498, 48 h, read-out: Growth Percentage, A498, dose of 10 μM) was 98% and the CC50 (A498; A498, read-out: LC50) was 91.2 µM. It also gave an IC (TGI) (A498; A498, read-out: TGI) of 42.7 µM, a GI50 (SK-MEL-5; SK-MEL-5) of 4.79 µM and an IC50 (SK-MEL-5; SK-MEL-5) of 9.12 µM. It also gave an activity at 10 µM (SK-MEL-5; SK-MEL-5, 48 h, read-out: Growth Percentage) of 16.1%, a CC50 (SK-MEL-5; SK-MEL-5, read-out: LC50) of 41.7 µM and an IC (TGI) (SK-MEL-5; SK-MEL-5, read-out: TGI) of 17 µM. The GI50 (MOLT-4; MOLT-4) was 2.82 µM, the IC50 (MOLT-4; MOLT-4) was 4.27 µM and the activity at 10 µM (MOLT-4; MOLT-4, 48 h, read-out: Growth Percentage) was 19.8%. For the same compound, the CC50 (MOLT-4; MOLT-4, read-out: LC50) was > 100 µM, the IC (TGI) (MOLT-4; MOLT-4, read-out: TGI) was > 100 µM and the GI50 (RXF 393; RXF 393) was 1.91 µM. It also gave an IC50 (RXF 393; RXF 393) of 5.13 µM, an activity at 10 µM (RXF 393; RXF 393, 48 h, read-out: Growth Percentage) of 10.7% and a CC50 (RXF 393; RXF 393, read-out: LC50) of 10 µM. The IC (TGI) (RXF 393; RXF 393, read-out: TGI) was 4.37 µM, the GI50 (NCI-H522; NCI-H522) was 4.57 µM and the IC50 (NCI-H522; NCI-H522) was 11.5 µM. The activity at 10 µM (NCI-H522; NCI-H522, 48 h, read-out: Growth Percentage) was 22%, the CC50 (NCI-H522; NCI-H522, read-out: LC50) was 45.7 µM and the IC (TGI) (NCI-H522; NCI-H522, read-out: TGI) was 17.4 µM. It also gave a GI50 (K-562; K562) of 3.39 µM, an IC50 (K-562; K562) of 4.27 µM and an activity at 10 µM (K-562; K562, 48 h, read-out: Growth Percentage) of 16.8%. For the same compound, the CC50 (K-562; K562, read-out: LC50) was > 100 µM, the IC (TGI) (K-562; K562, read-out: TGI) was > 100 µM and the GI50 (MALME-3M) was 2.24 µM. The IC50 (MALME-3M) was 5.13 µM, the activity at 10 µM (MALME-3M; [2]) was 86.9% and the CC50 (MALME-3M; read-out: LC50) was 50.1 µM. The IC (TGI) (MALME-3M; read-out: TGI) was 5.75 µM, the GI50 (SF-539; SF-539) was 2 µM and the IC50 (SF-539; SF-539) was 3.63 µM. It also gave an activity at 10 µM (SF-539; SF-539, 48 h, read-out: Growth Percentage) of -10.7%, an IC (TGI) (SF-539; SF-539, read-out: TGI) of 4.07 µM and a GI50 (SF-268; SF-268) of 3.72 µM. The IC50 (SF-268; SF-268) was 7.59 µM, the activity at 10 µM (SF-268; SF-268, 48 h, read-out: Growth Percentage) was 51.8% and the CC50 (SF-268; SF-268, read-out: LC50) was 97.7 µM. For the same compound, the IC (TGI) (SF-268; SF-268, read-out: TGI) was 17 µM, the IC50 (SNB-19; SNB-19) was 17 µM and the CC50 (SNB-19; SNB-19, read-out: LC50) was 49 µM. For the same compound, the IC (TGI) (SNB-19; SNB-19, read-out: TGI) was 21.4 µM, the activity at 10 µM ([1]; Homo sapiens, 48 h, range over the cell lines, dose of 10 μM, read-out: growth percentages against most of the tested cells (lowest to highest)) was -26.1 to 98% and the “Log10GI50 _MID” value [1, 3] was -5.17 Molar. The “Log10LC50 _MID” value [1, 3] was -4.26 Molar, the “Log10TGI _MID” value [1, 3] was -4.66 Molar and the GI50 (HS 578T) was 3.09 µM. The IC50 (HS 578T) was > 100 µM, the activity at 10 µM (HS 578T; [2]) was 47.2% and the CC50 (HS 578T; read-out: LC50) was > 100 µM. It also gave an IC (TGI) (HS 578T; read-out: TGI) of 85.1 µM, a GI50 (NCI-H23; NCI-H23) of 2.09 µM and an IC50 (NCI-H23; NCI-H23) of 3.63 µM. The activity at 10 µM (NCI-H23; NCI-H23, 48 h, read-out: Growth Percentage) was 18%, the CC50 (NCI-H23; NCI-H23, read-out: LC50) was 12.9 µM and the IC (TGI) (NCI-H23; NCI-H23, read-out: TGI) was 4.68 µM. For the same compound, the GI50 (RPMI-8226; RPMI-8226) was 2.04 µM, the IC50 (RPMI-8226; RPMI-8226) was 3.72 µM and the activity at 10 µM (RPMI-8226; RPMI-8226, 48 h, read-out: Growth Percentage) was 10.4%. For the same compound, the CC50 (RPMI-8226; RPMI-8226, read-out: LC50) was > 100 µM, the IC (TGI) (RPMI-8226; RPMI-8226, read-out: TGI) was 5.5 µM and the GI50 (SN12C) was 2 µM. It also gave an IC50 (SN12C) of 3.55 µM, an activity at 10 µM (SN12C; [2]) of 12% and a CC50 (SN12C; read-out: LC50) of 8.91 µM. It also gave an IC (TGI) (SN12C; read-out: TGI) of 4.27 µM, a GI50 (DU-145; DU-145) of 3.24 µM and an IC50 (DU-145; DU-145) of 4.79 µM. The activity at 10 µM (DU-145; DU-145, 48 h, read-out: Growth Percentage) was 16.1%, the CC50 (DU-145; DU-145, read-out: LC50) was 42.7 µM and the IC (TGI) (DU-145; DU-145, read-out: TGI) was 11.5 µM. For the same compound, the GI50 (MDA-MB-231/ATCC; MDA-MB-231) was 2.45 µM, the IC50 (MDA-MB-231/ATCC; MDA-MB-231) was 6.17 µM and the activity at 10 µM (MDA-MB-231/ATCC; MDA-MB-231, 48 h, read-out: Growth Percentage) was -0.43%. The CC50 (MDA-MB-231/ATCC; MDA-MB-231, read-out: LC50) was 39.8 µM, the IC (TGI) (MDA-MB-231/ATCC; MDA-MB-231, read-out: TGI) was 6.92 µM and the GI50 (CCRF-CEM) was 2.45 µM. It also gave an IC50 (CCRF-CEM) of 3.72 µM, an activity at 10 µM (CCRF-CEM; [2]) of 15.2% and an IC (TGI) (CCRF-CEM; read-out: TGI) of 7.94 µM. For the same compound, the GI50 (BT-549; BT-549) was 2.24 µM, the IC50 (BT-549; BT-549) was 5.89 µM and the activity at 10 µM (BT-549; BT-549, 48 h, read-out: Growth Percentage) was 2.28%. The IC (TGI) (BT-549; BT-549, read-out: TGI) was 6.17 µM, the GI50 (COLO 205; COLO 205) was 3.55 µM and the IC50 (COLO 205; COLO 205) was 5.25 µM. For the same compound, the activity at 10 µM (COLO 205; COLO 205, 48 h, read-out: Growth Percentage) was 70.7%, the CC50 (COLO 205; COLO 205, read-out: LC50) was 51.3 µM and the IC (TGI) (COLO 205; COLO 205, read-out: TGI) was 14.4 µM. It also gave a GI50 (MCF7; MCF7) of 3.31 µM, an IC50 (MCF7; MCF7) of 8.13 µM and an activity at 10 µM (MCF7; MCF7, 48 h, read-out: Growth Percentage) of 7.9%. The CC50 (MCF7; MCF7, read-out: LC50) was 37.1 µM, the IC (TGI) (MCF7; MCF7, read-out: TGI) was 12.3 µM and the GI50 (EKVX) was 10.5 µM. It also gave an IC50 (EKVX) of 24 µM, an activity at 10 µM (EKVX; [2]) of 34.7% and a CC50 (EKVX; read-out: LC50) of 95.5 µM. For the same compound, the IC (TGI) (EKVX; read-out: TGI) was 31.6 µM, the GI50 (NCI/ADR-RES) was 2.88 µM and the IC50 (NCI/ADR-RES) was 5.01 µM. For the same compound, the activity at 10 µM (NCI/ADR-RES; [2]) was -5.11%, the CC50 (NCI/ADR-RES; read-out: LC50) was > 100 µM and the IC (TGI) (NCI/ADR-RES; read-out: TGI) was > 100 µM. It also gave a GI50 (PC-3; PC-3) of 2.88 µM, an IC50 (PC-3; PC-3) of 4.9 µM and an activity at 10 µM (PC-3; PC-3, 48 h, read-out: Growth Percentage) of 31.8%. The CC50 (PC-3; PC-3, read-out: LC50) was > 100 µM, the IC (TGI) (PC-3; PC-3, read-out: TGI) was 13.8 µM and the GI50 (ACHN) was 2.29 µM. It also gave an IC50 (ACHN) of 3.72 µM, an activity at 10 µM (ACHN; [2]) of 22.9% and a CC50 (ACHN; read-out: LC50) of 21.4 µM. The IC (TGI) (ACHN; read-out: TGI) was 6.03 µM, the GI50 (NCI-H322M) was 6.03 µM and the IC50 (NCI-H322M) was 16.2 µM. The activity at 10 µM (NCI-H322M; [2]) was 50.1%, the CC50 (NCI-H322M; read-out: LC50) was 85.1 µM and the IC (TGI) (NCI-H322M; read-out: TGI) was 26.3 µM. It also gave a GI50 (NCI-H226; NCI-H226) of 4.37 µM, an IC50 (NCI-H226; NCI-H226) of 29.5 µM and an activity at 10 µM (NCI-H226; NCI-H226, 48 h, read-out: Growth Percentage) of 32.7%. For the same compound, the CC50 (NCI-H226; NCI-H226, read-out: LC50) was > 100 µM, the IC (TGI) (NCI-H226; NCI-H226, read-out: TGI) was 38.9 µM and the GI50 (M14; M14) was 2.88 µM. For the same compound, the IC50 (M14; M14) was 4.17 µM, the activity at 10 µM (M14; M14, 48 h, read-out: Growth Percentage) was 40.2% and the IC (TGI) (M14; M14, read-out: TGI) was 9.55 µM.
